# Results published in ChEMBL document CHEMBL1201862, “PubChem BioAssay data set” (2004).
# The source made the active and inactive calls.
# What was measured:
# [1] = molecular target: Nuclear receptor subfamily 5 group A member 2 (Homo sapiens, UniProt O00482); format: functional, cell-based;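 note: HEK293T cells transfected with LRH-1 and a StAR promoter luciferase reporter; potency for inhibitors that lower LRH-1 driven reporter light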
# [2] = molecular target: Steroidogenic factor 1 (Homo sapiens, UniProt Q13285); test: Counterscreen for inverse agonists of the liver receptor homolog-1 (LRH-1; NR5A2): Luminescence-based cell-based high throughput dose response assay to identify inverse agonists of the Steroidogenic Factor 1 Nuclear Receptor (SF1; NR5A1).; format: functional
# [3] = StAR promoter reporter inhibition counter-screen, dose response, counter-screen for LRH-1 inverse agonist project, cell-based, luminescence, luciferase reporter (AID 651969); format: functional
# [4] = molecular target: Mu-type opioid receptor (Homo sapiens, UniProt P35372); format: functional, cell-based;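 note: U2OS cells with beta-arrestin recruitment to OPRM1 by beta-gal complementation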
# [5] = molecular target: 5-hydroxytryptamine receptor 2A (Mus musculus, UniProt P35363); format: functional, cell-based;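 note: CHO-K1 cells with tagged receptor and beta-arrestin; agonist potency measured as compound-induced activation of the receptor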
# [6] = cells; format: functional, cell-based
# [7] = molecular target: T1, Nuclear receptor subfamily 0 group B member 1 (Homo sapiens, UniProt P51843); format: functional, cell-based;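 note: HEK293T cells transfected with SF-1 and DAX-1 plus StAR promoter luciferase reporter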
# T1 sequence (P51843 whole entry): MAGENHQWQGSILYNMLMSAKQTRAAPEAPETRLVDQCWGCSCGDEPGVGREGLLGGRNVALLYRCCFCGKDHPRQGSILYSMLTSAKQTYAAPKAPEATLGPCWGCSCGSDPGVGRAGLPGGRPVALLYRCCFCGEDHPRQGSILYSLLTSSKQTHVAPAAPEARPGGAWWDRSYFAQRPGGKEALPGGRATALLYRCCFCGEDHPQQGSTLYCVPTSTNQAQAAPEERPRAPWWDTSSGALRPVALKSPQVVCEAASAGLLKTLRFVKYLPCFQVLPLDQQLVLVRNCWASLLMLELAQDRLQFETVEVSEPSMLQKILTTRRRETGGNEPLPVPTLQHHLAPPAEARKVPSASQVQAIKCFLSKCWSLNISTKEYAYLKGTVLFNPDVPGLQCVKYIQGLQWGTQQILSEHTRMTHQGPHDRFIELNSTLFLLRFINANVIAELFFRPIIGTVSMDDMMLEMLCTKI
# [8] = molecular target: T2, Orexin/Hypocretin receptor type 1 (Homo sapiens, UniProt O43613); test: Homogeneous Time Resolved Fluorescence (HTRF)-based cell-based high throughput dose response assay for antagonists of the orexin 1 receptor (OX1R; HCRTR1). [Related pubchem assays (depositor defined):AID434989, AID435008, AID463079, AID485270, AID492963, AID492964, AID492965, AID493232, AID504717, AID504718]; format: functional
# T2 sequence (O43613 whole entry): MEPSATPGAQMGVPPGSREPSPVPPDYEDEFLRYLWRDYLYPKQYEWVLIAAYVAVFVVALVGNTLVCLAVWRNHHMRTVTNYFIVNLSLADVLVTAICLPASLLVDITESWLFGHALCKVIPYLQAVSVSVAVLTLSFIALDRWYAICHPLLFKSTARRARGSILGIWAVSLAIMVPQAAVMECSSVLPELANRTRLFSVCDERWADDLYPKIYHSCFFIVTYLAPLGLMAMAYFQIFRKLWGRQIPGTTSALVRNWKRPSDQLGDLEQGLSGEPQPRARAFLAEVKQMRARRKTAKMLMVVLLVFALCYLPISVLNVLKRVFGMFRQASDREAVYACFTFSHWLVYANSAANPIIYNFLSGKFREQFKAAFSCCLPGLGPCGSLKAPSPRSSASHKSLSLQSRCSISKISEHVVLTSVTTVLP
# [9] = molecular target: T3, Orexin receptor type 2 (Homo sapiens, UniProt O43614); test: Counterscreen assay for antagonists of the orexin 1 receptor (OX1R; HCRTR1): Homogeneous Time Resolved Fluorescence (HTRF)-based cell-based dose response assay for antagonists of the orexin 2 receptor (OX2R; HCRTR2), run by assay provider.; format: functional
# T3 sequence (O43614 whole entry): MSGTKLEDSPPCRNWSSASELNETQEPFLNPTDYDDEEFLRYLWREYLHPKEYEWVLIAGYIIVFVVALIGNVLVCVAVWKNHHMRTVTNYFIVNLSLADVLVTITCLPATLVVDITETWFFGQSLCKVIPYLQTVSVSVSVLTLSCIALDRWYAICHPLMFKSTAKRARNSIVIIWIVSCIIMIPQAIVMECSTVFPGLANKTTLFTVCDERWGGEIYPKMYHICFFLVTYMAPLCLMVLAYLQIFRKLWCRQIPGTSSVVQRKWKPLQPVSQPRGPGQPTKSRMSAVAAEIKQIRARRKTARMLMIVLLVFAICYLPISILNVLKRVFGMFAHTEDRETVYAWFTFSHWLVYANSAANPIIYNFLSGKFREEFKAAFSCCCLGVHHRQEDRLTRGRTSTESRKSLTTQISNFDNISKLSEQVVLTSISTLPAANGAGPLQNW
# [10] = (§1) Counterscreen for antagonists of the orexin 1 receptor (OX1R; HCRTR1): Fluorescence-based cell-based high throughput dose response assay to identify antagonists of the parental CHO cell line. [Related pubchem assays (depositor defined):AID434989, AID435008, AID463079, AID485270, AID492963, AID492964, AID492965, AID493232, AID504699, AID504701]; format: functional
# [11] = molecular target: T2, Orexin/Hypocretin receptor type 1; test: Fluorescence-based cell-based high throughput dose response assay for antagonists of the orexin 1 receptor (OX1R; HCRTR1). [Related pubchem assays (depositor defined):AID434989, AID435008, AID463079, AID485270, AID492963, AID492964, AID492965, AID493232, AID504717, AID504718]; format: functional
# [12] = test system: CHO-K1; test: as §1, with “Homogeneous time resolved fluorescence (HTRF)-based” for “Fluorescence-based”, “cell-based” for “cell-based high throughput”, “CHO-K1” for “CHO”; format: functional; settings: Cricetulus griseus;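 note: potency for inhibition of ATP-stimulated IP1 production as antagonists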
# [13] = molecular target: T3, Orexin receptor type 2; test: Counterscreen assay for antagonists of the orexin 1 receptor (OX1R; HCRTR1): Fluorescence-based cell-based dose response assay for antagonists of the orexin 2 receptor (OX2R; HCRTR2), run by assay provider.; format: functional
# [14] = molecular target: T4, Heat shock factor protein 1 (Mus musculus, UniProt P38532); test: inhibition of MG132-induced HSE-luciferase signal, confirmation, cell-based, NIH3T3, luminescence, dose retest (AID 2382); format: functional;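 note: NIH3T3 fibroblasts with HSF1-driven luciferase reporter stressed by proteasome inhibitor MG132; luminescence from HSF1-driven luciferase expression after 8 hours of MG132 stress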
# T4 sequence (P38532 whole entry): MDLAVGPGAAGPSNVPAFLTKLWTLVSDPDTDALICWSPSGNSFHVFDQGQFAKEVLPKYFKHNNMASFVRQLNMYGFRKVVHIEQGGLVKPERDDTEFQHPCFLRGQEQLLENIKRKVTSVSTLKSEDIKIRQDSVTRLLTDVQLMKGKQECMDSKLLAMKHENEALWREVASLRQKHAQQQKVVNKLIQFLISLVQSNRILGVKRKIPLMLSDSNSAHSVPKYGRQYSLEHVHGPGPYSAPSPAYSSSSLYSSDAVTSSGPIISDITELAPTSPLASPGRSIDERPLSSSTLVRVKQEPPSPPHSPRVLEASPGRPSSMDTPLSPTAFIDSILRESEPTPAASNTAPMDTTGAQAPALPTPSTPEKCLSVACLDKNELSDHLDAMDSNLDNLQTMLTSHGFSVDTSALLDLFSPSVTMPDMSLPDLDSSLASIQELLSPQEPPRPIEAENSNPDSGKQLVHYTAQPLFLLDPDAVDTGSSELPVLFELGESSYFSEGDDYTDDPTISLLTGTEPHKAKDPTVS
# [15] = ARNT/TACC3 interaction disruptors, potency, confirmation, biochemical, AlphaScreen, cherry-picked samples (AID 651703); format: functional, Homo sapiens;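 note: His-tagged ARNT PAS-B domain paired with GST-TACC3 E629A dimer coactivator fragment; potency of inhibitors that break up the complex and lower AlphaScreen signal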
# [16] = Luminescence Cell-Based Dose Confirmation HTS to Identify Inhibitors of Platelet Dense Granule Release. [Related pubchem assays: 1663 (Primary HTS), 1678 (Summary of Project)]; format: functional
# [17] = molecular target: FAD-linked sulfhydryl oxidase ALR (Homo sapiens, UniProt P55789); test: inhibitors of human ALR sulfhydryl oxidase, dose response, biochemical, H2O2 detection, luminescence, cherry-pick (AID 493248)
# [18] = molecular target: Luciferin 4-monooxygenase (Photinus pyralis, UniProt P08659); test: firefly luciferase enzyme inhibitors, dose response, biochemical, luminescence (AID 1891)
# [19] = molecular target: Photoreceptor-specific nuclear receptor (Homo sapiens, UniProt Q9Y5X4); format: functional, cell-based;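 note: CHO-S cells with Gal4-NCOR and VP16-NR2E3 two-hybrid luciferase reporter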
# [20] = molecular target: Adenosylmethionine-8-amino-7-oxononanoate aminotransferase (Mycobacterium tuberculosis, UniProt P9WQ81); test: Mycobacterium tuberculosis BioA enzyme inhibitor Measured in Biochemical System Using Plate Reader - 2163-02_Inhibitor_Dose_CherryPick_Activity.; format: functional, Mycobacterium tuberculosis UT205
# [21] = molecular target: Melanocortin receptor 4 (Homo sapiens, UniProt P32245); test: MC4R antagonist potency on cAMP, dose response, cell-based, TR-FRET, biased antagonists (AID 602298); format: functional;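 note: antagonist potency against agonist-stimulated cAMP production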
# [22] = nonselective inhibitors of cellular cAMP signaling, dose response, counter-screen for MC4R biased antagonist project, cell-based, TR-FRET cAMP detection (AID 602305); format: functional;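 note: U2OS cells stimulated with forskolin near its EC80 as the cAMP inducer; potency is for inhibition of forskolin-stimulated cAMP signaling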
# [23] = HepG2 cell cytotoxicity, dose response, cytotoxicity control for Shn3 inhibitor project, CellTiter-Glo, cherry-picked (AID 624134); format: functional, cell-based
# [24] = Shn3 3'UTR reporter inhibitors, dose response, cell-based, Clone20 osteoblasts, firefly luciferase, cherry-picked (AID 624132); format: functional;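 note: firefly luciferase luminescence from reporter carrying the Shn3 3'UTR in osteoblasts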
# [25] = control 3'UTR Renilla luciferase suppression, dose response, counter-screen for Shn3 inhibitor project, cell-based, Clone20-Shn3RL, cherry-picked (AID 624133); format: functional
# [26] = molecular target: Protein Wnt-3a (Mus musculus, UniProt P27467); test: Wnt3a-driven reporter signaling inhibition, dose response, selectivity assay for Gli-SUFU antagonist project, Wnt-LIGHT cells, luminescence (AID 651570); format: functional; settings: read-out: IC50_Mean;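 note: Wnt-LIGHT reporter cells stimulated with conditioned medium from Wnt3a-producing cells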
# [27] = test system: HeLa; test: HeLa cell cytotoxicity, dose response, cytotoxicity control for MITF activator project, CellTiter-Glo luminescence, cherry-pick samples (AID 540259); format: functional, cell-based; settings: Homo sapiens
# [28] = test system: INS1; test: beta cell apoptosis inhibitors, cytokine rescue, dose response, luminescence, retest (AID 449756); format: functional, cell-based; settings: Rattus norvegicus;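 note: cell death triggered by IL-1 beta plus TNF-alpha plus IFN-gamma mixture; protective hits raise ATP signal compared with cytokine alone wells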
# [29] = Luminescence Cell-Based Dose Retest to Confirm Inhibitors of Cancer Stem Cells. [Related pubchem assays (depositor defined):AID2717, AID2721]; format: functional; settings: Homo sapiens
# [30] = molecular target: Ras and Rab interactor 1/Tyrosine-protein kinase ABL1 (Homo sapiens, UniProt P00519+Q13671); format: functional;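 note: biochemical TR-FRET dose-response test measuring inhibition of binding between Rin1 and Abl proteins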
# Chain of Ras and Rab interactor 1/Tyrosine-protein kinase ABL1 (P00519 whole entry): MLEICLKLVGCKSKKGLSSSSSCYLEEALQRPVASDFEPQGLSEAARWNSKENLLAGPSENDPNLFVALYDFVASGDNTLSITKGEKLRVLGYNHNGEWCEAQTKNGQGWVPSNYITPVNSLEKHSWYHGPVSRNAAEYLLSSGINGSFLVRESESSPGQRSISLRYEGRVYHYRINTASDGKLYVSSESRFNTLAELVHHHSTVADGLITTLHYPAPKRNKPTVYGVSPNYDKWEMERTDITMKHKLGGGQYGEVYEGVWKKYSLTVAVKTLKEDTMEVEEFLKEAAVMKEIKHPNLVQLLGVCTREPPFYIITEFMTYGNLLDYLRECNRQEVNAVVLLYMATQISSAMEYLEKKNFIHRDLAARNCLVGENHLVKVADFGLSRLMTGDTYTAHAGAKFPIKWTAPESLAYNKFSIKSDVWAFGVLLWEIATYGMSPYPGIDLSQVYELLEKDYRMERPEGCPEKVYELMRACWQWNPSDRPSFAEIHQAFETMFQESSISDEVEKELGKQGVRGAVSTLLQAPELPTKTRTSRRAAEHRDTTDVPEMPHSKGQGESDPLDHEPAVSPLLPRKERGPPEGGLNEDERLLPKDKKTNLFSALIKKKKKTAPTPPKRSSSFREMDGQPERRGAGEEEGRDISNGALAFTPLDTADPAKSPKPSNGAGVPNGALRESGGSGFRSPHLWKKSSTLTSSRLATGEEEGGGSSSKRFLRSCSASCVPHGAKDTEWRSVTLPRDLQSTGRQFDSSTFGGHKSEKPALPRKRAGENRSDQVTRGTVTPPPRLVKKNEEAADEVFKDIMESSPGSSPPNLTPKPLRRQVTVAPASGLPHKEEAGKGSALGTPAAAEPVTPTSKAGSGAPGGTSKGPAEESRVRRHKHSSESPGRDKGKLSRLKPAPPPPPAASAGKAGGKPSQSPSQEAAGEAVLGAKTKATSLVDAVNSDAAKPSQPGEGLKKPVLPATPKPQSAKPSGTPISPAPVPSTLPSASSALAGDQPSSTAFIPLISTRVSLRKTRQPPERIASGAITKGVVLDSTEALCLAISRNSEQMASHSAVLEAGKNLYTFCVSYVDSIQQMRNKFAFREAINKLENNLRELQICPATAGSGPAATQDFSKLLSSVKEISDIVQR
# Chain of Ras and Rab interactor 1/Tyrosine-protein kinase ABL1 (Q13671 whole entry): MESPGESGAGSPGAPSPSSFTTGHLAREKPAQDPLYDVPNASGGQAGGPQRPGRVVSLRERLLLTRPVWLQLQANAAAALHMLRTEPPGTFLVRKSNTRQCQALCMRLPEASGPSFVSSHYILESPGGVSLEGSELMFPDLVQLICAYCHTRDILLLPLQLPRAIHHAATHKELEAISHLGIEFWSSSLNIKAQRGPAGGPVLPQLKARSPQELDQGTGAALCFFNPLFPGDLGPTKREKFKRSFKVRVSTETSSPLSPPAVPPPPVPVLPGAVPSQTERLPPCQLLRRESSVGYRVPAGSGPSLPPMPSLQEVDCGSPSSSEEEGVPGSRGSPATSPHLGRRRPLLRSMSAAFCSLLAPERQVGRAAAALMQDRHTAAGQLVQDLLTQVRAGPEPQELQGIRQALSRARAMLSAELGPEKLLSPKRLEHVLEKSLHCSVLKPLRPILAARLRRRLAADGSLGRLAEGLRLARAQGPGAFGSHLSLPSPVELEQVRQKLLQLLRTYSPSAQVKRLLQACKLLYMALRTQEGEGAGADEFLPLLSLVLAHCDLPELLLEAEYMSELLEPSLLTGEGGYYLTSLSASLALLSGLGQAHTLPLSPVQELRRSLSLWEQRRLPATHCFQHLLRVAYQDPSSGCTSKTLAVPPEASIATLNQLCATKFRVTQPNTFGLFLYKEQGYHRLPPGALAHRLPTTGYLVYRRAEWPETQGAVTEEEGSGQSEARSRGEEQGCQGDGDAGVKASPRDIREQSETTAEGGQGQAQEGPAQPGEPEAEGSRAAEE
# Chain of Adenosylmethionine-8-amino-7-oxononanoate aminotransferase (P9WQ81 whole entry): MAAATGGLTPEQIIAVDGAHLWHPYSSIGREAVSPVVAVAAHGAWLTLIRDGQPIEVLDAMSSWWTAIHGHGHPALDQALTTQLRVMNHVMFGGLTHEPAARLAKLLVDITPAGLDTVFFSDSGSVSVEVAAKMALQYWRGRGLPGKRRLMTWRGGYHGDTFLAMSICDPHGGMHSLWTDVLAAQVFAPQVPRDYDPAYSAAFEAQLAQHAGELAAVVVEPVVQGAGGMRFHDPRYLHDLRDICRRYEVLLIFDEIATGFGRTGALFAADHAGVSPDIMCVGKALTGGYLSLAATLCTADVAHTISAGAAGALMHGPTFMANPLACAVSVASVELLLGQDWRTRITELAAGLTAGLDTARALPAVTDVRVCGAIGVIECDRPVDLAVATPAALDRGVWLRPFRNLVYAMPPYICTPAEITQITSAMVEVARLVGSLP
# Chain of Nuclear receptor subfamily 5 group A member 2 (O00482 whole entry): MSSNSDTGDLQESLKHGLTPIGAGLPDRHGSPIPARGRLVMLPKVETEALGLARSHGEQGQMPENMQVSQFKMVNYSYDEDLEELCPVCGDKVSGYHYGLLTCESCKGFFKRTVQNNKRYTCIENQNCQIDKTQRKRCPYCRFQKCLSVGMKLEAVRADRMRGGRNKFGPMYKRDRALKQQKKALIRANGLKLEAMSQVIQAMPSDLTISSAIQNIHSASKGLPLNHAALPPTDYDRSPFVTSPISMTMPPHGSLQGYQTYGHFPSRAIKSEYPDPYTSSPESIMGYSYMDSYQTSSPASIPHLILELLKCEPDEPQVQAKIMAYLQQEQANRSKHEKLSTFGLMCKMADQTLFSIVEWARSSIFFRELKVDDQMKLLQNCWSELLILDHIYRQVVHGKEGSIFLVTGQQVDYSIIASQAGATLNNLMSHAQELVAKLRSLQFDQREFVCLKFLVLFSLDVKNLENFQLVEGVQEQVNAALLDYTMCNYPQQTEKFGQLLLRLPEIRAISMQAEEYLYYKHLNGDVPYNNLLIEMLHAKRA
# Chain of Melanocortin receptor 4 (P32245 whole entry): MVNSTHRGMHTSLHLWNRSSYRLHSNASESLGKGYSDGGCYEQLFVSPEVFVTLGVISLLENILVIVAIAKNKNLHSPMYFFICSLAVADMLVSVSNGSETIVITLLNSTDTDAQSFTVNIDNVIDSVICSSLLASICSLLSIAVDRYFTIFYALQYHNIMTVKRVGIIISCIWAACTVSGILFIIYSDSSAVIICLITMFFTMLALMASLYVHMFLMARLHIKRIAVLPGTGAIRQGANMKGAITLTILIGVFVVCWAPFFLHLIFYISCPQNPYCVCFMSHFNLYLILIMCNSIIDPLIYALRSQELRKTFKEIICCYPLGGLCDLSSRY
# Chain of 5-hydroxytryptamine receptor 2A (P35363 whole entry): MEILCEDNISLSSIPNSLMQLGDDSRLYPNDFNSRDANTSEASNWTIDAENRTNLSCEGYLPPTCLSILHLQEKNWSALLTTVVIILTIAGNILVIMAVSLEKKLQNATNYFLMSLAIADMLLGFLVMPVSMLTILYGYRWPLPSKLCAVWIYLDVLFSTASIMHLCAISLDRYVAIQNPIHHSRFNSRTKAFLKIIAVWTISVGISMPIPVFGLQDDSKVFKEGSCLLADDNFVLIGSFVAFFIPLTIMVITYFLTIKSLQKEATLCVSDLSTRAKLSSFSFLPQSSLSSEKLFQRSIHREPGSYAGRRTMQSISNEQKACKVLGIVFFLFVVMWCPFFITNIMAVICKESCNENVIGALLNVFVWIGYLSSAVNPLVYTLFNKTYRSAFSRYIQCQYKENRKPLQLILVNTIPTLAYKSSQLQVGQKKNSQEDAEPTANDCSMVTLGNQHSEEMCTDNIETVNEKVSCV
# Chain of Protein Wnt-3a (P27467 whole entry): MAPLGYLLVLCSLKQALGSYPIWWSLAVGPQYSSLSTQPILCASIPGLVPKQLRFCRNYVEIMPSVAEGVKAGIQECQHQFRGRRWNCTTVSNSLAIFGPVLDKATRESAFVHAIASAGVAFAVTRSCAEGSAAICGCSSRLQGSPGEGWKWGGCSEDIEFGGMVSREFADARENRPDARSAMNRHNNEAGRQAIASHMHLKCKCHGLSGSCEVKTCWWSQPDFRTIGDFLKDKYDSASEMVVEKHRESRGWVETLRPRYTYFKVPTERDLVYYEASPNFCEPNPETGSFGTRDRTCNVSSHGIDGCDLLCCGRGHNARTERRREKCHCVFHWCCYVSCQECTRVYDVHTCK
# Chain of Steroidogenic factor 1 (Q13285 whole entry): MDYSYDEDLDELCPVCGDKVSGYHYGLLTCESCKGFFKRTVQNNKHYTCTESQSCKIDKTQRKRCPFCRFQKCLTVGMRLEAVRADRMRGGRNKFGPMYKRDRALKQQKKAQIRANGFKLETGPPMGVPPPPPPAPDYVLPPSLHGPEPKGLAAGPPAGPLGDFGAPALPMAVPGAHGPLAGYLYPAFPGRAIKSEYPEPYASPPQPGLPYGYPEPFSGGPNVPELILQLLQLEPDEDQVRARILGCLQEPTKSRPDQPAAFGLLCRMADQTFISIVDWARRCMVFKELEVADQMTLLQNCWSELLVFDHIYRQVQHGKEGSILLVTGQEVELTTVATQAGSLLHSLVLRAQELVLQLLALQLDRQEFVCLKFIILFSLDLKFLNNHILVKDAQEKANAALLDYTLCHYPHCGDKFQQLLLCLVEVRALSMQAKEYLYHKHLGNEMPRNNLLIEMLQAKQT
# Chain of Mu-type opioid receptor (P35372 whole entry): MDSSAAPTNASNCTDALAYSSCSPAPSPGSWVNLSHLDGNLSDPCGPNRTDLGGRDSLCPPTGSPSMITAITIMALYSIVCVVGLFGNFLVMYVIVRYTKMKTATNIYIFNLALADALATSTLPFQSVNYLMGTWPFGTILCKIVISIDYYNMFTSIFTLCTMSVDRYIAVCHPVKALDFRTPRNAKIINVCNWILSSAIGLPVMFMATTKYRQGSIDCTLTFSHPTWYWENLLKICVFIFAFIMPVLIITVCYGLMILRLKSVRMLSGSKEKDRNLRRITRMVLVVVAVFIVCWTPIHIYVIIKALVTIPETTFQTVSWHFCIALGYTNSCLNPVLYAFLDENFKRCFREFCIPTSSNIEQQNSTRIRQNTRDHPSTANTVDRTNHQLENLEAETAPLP
smiles,measurement,setting,value
O=C(Nc1ccc(C(=O)N2CCOCC2)cc1)c1cccc([N+](=O)[O-])c1,IC50,[1],15 µM (inactive)
same,IC50,[2],1.09 µM (active)
same,IC50,[3],35.9 µM (inactive)
COc1ccnc(Oc2ccccc2)c1C(=O)N=CNOCc1ccccc1F,IC50,[1],3.99 µM (active)
same,IC50,[2],3.65 µM (active)
same,IC50,[3],26.1 µM (inactive)
Brc1ccc(CN2CCN(c3ccccn3)CC2)s1,EC50,[4],92.5 µM (inactive)
same,EC50,[5],0.0705 µM (active)
O=C(Nc1ncccc1O)c1ccc(S(=O)(=O)N2CCCCCC2)cc1,IC50,[6],> 67.5 µM (inactive)
same,IC50,[7],31.7 µM (inactive)
Cc1nc2cc(-c3nc4ccccc4o3)ccc2[nH]1,IC50,[8],1.06 µM (active)
same,IC50,[9],> 50 µM (inactive)
same,IC50,[10],> 49.8 µM (inactive)
same,IC50,[11],6.1 µM (active)
same,IC50,[12],> 66.2 µM (inactive)
same,IC50,[13],> 88.8 µM (inactive)
NNC(=O)c1ccc(O)cc1O,EC50,[14],> 195 µM (not active)
same,AC50,[15],91.8 µM (active)
same,EC50,[16],> 112 µM (not active)
same,AC50,[17],16 µM (active)
same,EC50,[18],> 112 µM (not active)
Cc1c(NS(=O)(=O)c2cccc(C(=O)OCC(=O)N(C)C3CCCCC3)c2)c(=O)n(-c2ccccc2)n1C,IC50,[8],0.142 µM (active)
same,IC50,[9],0.8 µM (active)
same,IC50,[10],> 49.7 µM (inactive)
same,IC50,[11],2.42 µM (active)
same,IC50,[12],> 66.2 µM (inactive)
same,IC50,[13],1.2 µM (active)
c1ccc(CNc2ncnc3sccc23)cc1,IC50,[19],3.7 µM (active)
COc1ccc(C(C)NC(=O)Nc2ccc(C(C)=O)cc2)cc1OC (stereo unspecified),AC50,[20],3.72 µM (active)
COc1cc(-c2nc3ccc4ccccc4c3c3c2CCC3)cc(OC)c1OC,IC50,[21],43.1 µM (inactive)
same,IC50,[22],> 64.6 µM (inactive)
Cc1cc(Br)c(S(=O)(=O)NCc2ccncc2)cc1C,AC50,[23],2.37 µM (active)
same,AC50,[24],1.41 µM (active)
same,AC50,[25],3.34 µM (active)
same,IC50,[26],3.16 µM (active)
Cc1cccc(C)c1OCC(O)CN1CCN(c2ccccc2)CC1 (stereo unspecified),EC50,[4],92.5 µM (inactive)
same,EC50,[5],76.1 µM (inactive)
COc1cccc(-c2cc(C(=O)Nc3ccccc3SC)no2)c1,IC50,[8],1.91 µM (active)
same,IC50,[9],> 50 µM (inactive)
same,IC50,[10],> 49.7 µM (inactive)
same,IC50,[11],3.59 µM (active)
same,IC50,[12],> 66.2 µM (inactive)
same,IC50,[13],> 88.8 µM (inactive)
same,AC50,[27],97.5 µM (active)
CCCC(C)C(=O)Nc1nc(C)c(-c2csc(Nc3ccc(Cl)cc3)n2)s1 (stereo unspecified),AC50,[28],4.18 µM (active)
same,IC50,[26],13.8 µM (active)
O=C(Nc1ccccc1N1CCCCC1)c1ccc(Cl)c([N+](=O)[O-])c1,IC50,[21],> 64.6 µM (inactive)
same,AC50,[29],3.19 µM (active)
same,IC50,[22],> 64.6 µM (inactive)
O=C(OCCOc1ccc(Cl)cc1)c1cc(S(=O)(=O)N2CCCCC2)ccc1N1CCOCC1,AC50,[23],> 70 µM (inactive)
same,AC50,[24],1.97 µM (active)
same,AC50,[25],6.64 µM (active)
same,IC50,[19],4.3 µM (active)
CN(Cc1ccccc1)S(=O)(=O)c1ccc(Cl)c(C(=O)N2CCC2)c1,IC50,[30],32.9 µM (inactive)
COc1ccc(CCNC(=O)c2ccc(NC3=NC4CS(=O)(=O)CC4S3)cc2)cc1OC (stereo unspecified),IC50,[30],26.3 µM (inactive)
O=C(Cc1ccccc1)N1CC[C@@H]2[C@H](CO)Nc3ccc(Br)cc3[C@@H]21,AC50,[20],3.09 µM (active)
